Patent publication US10626103B2, “Inhibitor of lysine specific demethylase-1” (CELGENE QUANTICEL RESEARCH, INC., priority 2014, dated 2020)

Key:
[1] = molecular target: full-length human LSD1 (Homo sapiens (Human), UniProt O60341); test: In vitro enzyme inhibition assay LSD-1 (TR-FRET); type: biochemical; settings: H3K4me1-biotin peptide
Experimental: This assay determines the ability of a test compound to inhibit LSD1 demethylase activity.
The enzymatic assay of LSD1 activity is based on Time Resolved-Fluorescence Resonance Energy Transfer (TR-FRET) detection.
Plates were read by EnVision Multilabel Reader in TR-FRET mode (excitation at 320 nm, emission at 615 nm and 665 nm) after 1 hour incubation at room temperature.
The ability of the compounds disclosed herein to inhibit LSD1 activity was quantified and the respective IC50 value was determined.

[2] = tested on: CD11b expression in THP-1 (AML) cells; test: LSD1 CD11b cellular assay (flow cytometry); type: cell-based; settings: Homo sapiens, 96 h, THP-1 cells, 4 days
Experimental: To analyze LSD1 inhibitor efficacy in cells, a CDL11b flow cytometry assay was performed. LSD1 inhibition induces CD11b expression in THP-1 (AML) cells which can be measured by flow cytometry. […] LSD 1 test compounds were serially diluted in DMSO. The dilutions were added to each well accordingly to a final concentration of 0.2% DMSO. The cells were incubated at 37 degrees Celsius in 5% CO2 for 4 days. 250 μL of each well was transferred to a well in a 96 well round bottom plate. The plate was centrifuged at 1200 rpm at 4 degrees Celsius in a Beckman Coulter Alegra 6KR centrifuge for 5 minutes. The media was removed leaving the cells at the bottom of the wells. The cells were washed in 100 μL cold HBSS (Hank's Balanced Salt Solution) plus 2% BSA (Bovine Serum Albumin) solution and centrifuged at 1200 rpm at 4 degrees Celsius for 5 minutes. The wash was removed. […] The cells were centrifuged and washed two times in 100 μl HBSS plus 2% BSA. After the final spin the cells were resuspended in 100 μL HBSS plus 2% BSA containing 1 ug/mL DAPI (4′,6-diamidino-2-phenylindole). The cells were then analyzed by flow cytometry in a BD FACSAria machine. Cells were analyzed for CD11b expression. The percent of CD11b expressing cells for each inhibitor concentration was used to determine an IC50 curve for each compound analyzed.

SMILES	IC50 [1]	IC50 [2]
CN[C@H]1CCN(C(=O)c2cn(-c3ccc(OC)cc3)c(-c3ccc(C#N)c(F)c3)n2)C1 [Example 71, 2-Fluoro-4-[1-(4-methoxyphenyl)-4-[(3S)-3-(methylamino)pyrrolidine-1-carbonyl]imidazol-2-yl]benzonitrile]	< 0.1 µM	< 0.1 µM
CN[C@@H]1CCCN(C(=O)c2cn(-c3ccc(OC)cc3)c(-c3ccc(C#N)c(F)c3)n2)C1 [Example 72, 2-Fluoro-4-[1-(4-methoxyphenyl)-4-[(3R)-3-(methylamino)piperidine-1-carbonyl]imidazol-2-yl]benzonitrile]	< 0.1 µM	< 0.1 µM
CN[C@H]1CCN(C(=O)c2nc(-c3ccc(C#N)c(F)c3)n(-c3ccc(OC)cc3)c2F)C1 [Example 73, 2-Fluoro-4-[5-fluoro-1-(4-methoxyphenyl)-4-[(3S)-3-(methylamino)pyrrolidine-1-carbonyl]imidazol-2-yl]benzonitrile]	< 0.1 µM	< 0.1 µM
CN[C@@H]1CCCN(C(=O)c2nc(-c3ccc(C#N)c(F)c3)n(-c3ccc(OC)cc3)c2F)C1 [Example 74, 2-Fluoro-4-[5-fluoro-1-(4-methoxyphenyl)-4-[(3R)-3-(methylamino)piperidine-1-carbonyl]imidazol-2-yl]benzonitrile]	< 0.1 µM	< 0.1 µM
Cn1cc2cc(-n3c(-c4ccc(C#N)c(F)c4)nc(C(=O)N4CCC[C@@H](N)C4)c3Cl)ccc2n1 [Example 75, 4-[4-[(3R)-3-Aminopiperidine-1-carbonyl]-5-chloro-1-(2-methylindazol-5-yl)imidazol-2-yl]-2-fluorobenzonitrile]	< 0.1 µM	< 0.1 µM
Cn1cc2cc(-n3c(-c4ccc(C#N)c(F)c4)nc(C(=O)N4CCC[C@@H](N)C4)c3F)ccc2n1 [Example 77, 4-[4-[(3R)-3-Aminopiperidine-1-carbonyl]-5-fluoro-1-(2-methylindazol-5-yl)imidazol-2-yl]-2-fluorobenzonitrile]	< 0.1 µM	< 0.1 µM
Cc1c(C(=O)N2CC[C@H](N)C2)nc(-c2ccc(C#N)c(F)c2)n1-c1ccc(C2CC2)nc1 [Example 79, 4-[4-[(3S)-3-Aminopyrrolidine-1-carbonyl]-1-(6-cyclopropylpyridin-3-yl)-5-methylimidazol-2-yl]-2-fluorobenzonitrile]	< 0.1 µM	< 0.1 µM
N#Cc1ccc(-c2nc(C(=O)N3CCC[C@@H](N)C3)c(Cl)n2-c2ccc(C3CC3)nc2)cc1F [Example 80, 4-[4-[(3R)-3-Aminopiperidine-1-carbonyl]-5-chloro-1-(6-cyclopropylpyridin-3-yl)imidazol-2-yl]-2-fluorobenzonitrile]	< 0.1 µM	0.1 to 1 µM
N#Cc1ccc(-c2nc(C(=O)N3CC[C@H](N)C3)c(Cl)n2-c2ccc(C3CC3)nc2)cc1F [Example 81, 4-[4-[(3S)-3-Aminopyrrolidine-1-carbonyl]-5-chloro-1-(6-cyclopropylpyridin-3-yl)imidazol-2-yl]-2-fluorobenzonitrile]	< 0.1 µM	< 0.1 µM
COc1ccc(-n2c(-c3ccc(C#N)c(F)c3)nc(C(=O)N[C@@H]3CCCNC3)c2Cl)cc1F [Example 84, 5-Chloro-2-(4-cyano-3-fluorophenyl)-1-(3-fluoro-4-methoxyphenyl)-N-[(3R)-piperidin-3-yl]imidazole-4-carboxamide]	< 0.1 µM	< 0.1 µM
COc1ccc(-n2c(-c3ccc(C#N)c(F)c3)nc(C(=O)N[C@H]3CCCNC3)c2Cl)cc1F [Example 85, 5-Chloro-2-(4-cyano-3-fluorophenyl)-1-(3-fluoro-4-methoxyphenyl)-N-[(3S)-piperidin-3-yl]imidazole-4-carboxamide]	< 0.1 µM	0.1 to 1 µM
COc1ccc(-n2c(-c3ccc(C#N)c(F)c3)nc(C(=O)N[C@@H]3CCCNC3)c2F)cc1F [Example 86, 2-(4-Cyano-3-fluorophenyl)-5-fluoro-1-(3-fluoro-4-methoxyphenyl)-N-[(3R)-piperidin-3-yl]imidazole-4-carboxamide]	< 0.1 µM	0.1 to 1 µM
COc1ccc(-n2c(-c3ccc(C#N)c(F)c3)nc(C(=O)N3CC[C@H](N)C3)c2F)cc1F [Example 89, 4-[4-[(3S)-3-Aminopyrrolidine-1-carbonyl]-5-fluoro-1-(3-fluoro-4-methoxyphenyl)imidazol-2-yl]-2-fluorobenzonitrile]	< 0.1 µM	0.1 to 1 µM
Cc1c(C(=O)N2CCC3(CCCN3)C2)nc(-c2ccc(C#N)c(F)c2)n1-c1ccc2nn(C)cc2c1 (stereo not shown) [Example 90, 4-[4-(1,7-Diazaspiro[4.4]nonane-7-carbonyl)-5-methyl-1-(2-methylindazol-5-yl)imidazol-2-yl]-2-fluorobenzonitrile]	< 0.1 µM	0.1 to 1 µM
Cc1c(C(=O)N2CCC3(CNC3)C2)nc(-c2ccc(C#N)c(F)c2)n1-c1ccc2nn(C)cc2c1 [Example 91, 4-[4-(2,6-Diazaspiro[3.4]octane-6-carbonyl)-5-methyl-1-(2-methylindazol-5-yl)imidazol-2-yl]-2-fluorobenzonitrile]	< 0.1 µM	< 0.1 µM
Cc1c(C(=O)N2CCC3(CCN3)C2)nc(-c2ccc(C#N)c(F)c2)n1-c1ccc2c(cnn2C)c1 (stereo not shown) [Example 92, 4-[4-(1,7-Diazaspiro[3.4]octane-7-carbonyl)-5-methyl-1-(1-methylindazol-5-yl)imidazol-2-yl]-2-fluorobenzonitrile]	< 0.1 µM	0.1 to 1 µM
Cn1nc2ccc(-n3cc(C(=O)N4CCC5(CCN5)C4)nc3-c3ccc(C#N)c(F)c3)cc2c1Cl (stereo not shown) [Example 93, 4-[1-(3-Chloro-2-methylindazol-5-yl)-4-(1,7-diazaspiro[3.4]octane-7-carbonyl)imidazol-2-yl]-2-fluorobenzonitrile]	< 0.1 µM	0.1 to 1 µM
Cc1c(C(=O)N2CC[C@H](N(C)C)C2)nc(-c2ccc(C#N)c(F)c2)n1-c1ccc2c(cnn2C)c1 [Example 95, 4-[4-[(3S)-3-(Dimethylamino)pyrrolidine-1-carbonyl]-5-methyl-1-(1-methylindazol-5-yl)imidazol-2-yl]-2-fluorobenzonitrile]	< 0.1 µM	< 0.1 µM
CN[C@H]1CCCN(C(=O)c2nc(-c3ccc(C#N)c(F)c3)n(-c3ccc4nn(C)cc4c3)c2C)C1 [Example 97, 2-Fluoro-4-[5-methyl-4-[(3S)-3-(methylamino)piperidine-1-carbonyl]-1-(2-methylindazol-5-yl)imidazol-2-yl]benzonitrile]	< 0.1 µM	< 0.1 µM
CN[C@@H]1CCCN(C(=O)c2nc(-c3ccc(C#N)c(F)c3)n(-c3ccc4nn(C)cc4c3)c2C)C1 [Example 98, 2-Fluoro-4-[5-methyl-4-[(3R)-3-(methylamino)piperidine-1-carbonyl]-1-(2-methylindazol-5-yl)imidazol-2-yl]benzonitrile]	< 0.1 µM	< 0.1 µM
CN(C)[C@H]1CCN(C(=O)c2cn(-c3ccc4nn(C)cc4c3)c(-c3ccc(C#N)c(F)c3)n2)C1 [Example 99, 4-[4-[(3S)-3-(Dimethylamino)pyrrolidine-1-carbonyl]-1-(2-methylindazol-5-yl)imidazol-2-yl]-2-fluorobenzonitrile]	< 0.1 µM	0.1 to 1 µM
CN(C)[C@H]1CCN(C(=O)c2nc(-c3ccc(C#N)c(F)c3)n(-c3ccc4nn(C)cc4c3)c2Cl)C1 [Example 100, 4-[5-Chloro-4-[(3S)-3-(dimethylamino)pyrrolidine-1-carbonyl]-1-(2-methylindazol-5-yl)imidazol-2-yl]-2-fluorobenzonitrile]	< 0.1 µM	0.1 to 1 µM
CN(C)[C@H]1CCN(C(=O)c2nc(-c3ccc(C#N)c(F)c3)n(-c3ccc4nn(C)c(Cl)c4c3)c2Cl)C1 [Example 101, 4-[5-Chloro-1-(3-chloro-2-methylindazol-5-yl)-4-[(3S)-3-(dimethylamino)pyrrolidine-1-carbonyl]imidazol-2-yl]-2-fluorobenzonitrile]	< 0.1 µM	< 0.1 µM
Cc1c2cc(-n3c(-c4ccc(C#N)c(F)c4)nc(C(=O)N4CC[C@H](N(C)C)C4)c3C)ccc2nn1C [Example 102, 4-[4-[(3S)-3-(Dimethylamino)pyrrolidine-1-carbonyl]-1-(2,3-dimethylindazol-5-yl)-5-methylimidazol-2-yl]-2-fluorobenzonitrile]	< 0.1 µM	< 0.1 µM
CN[C@H]1CCN(C(=O)c2nc(-c3ccc(C#N)c(F)c3)n(-c3ccc4nn(C)c(C)c4c3)c2C)C1 [Example 103, 4-[1-(2,3-Dimethylindazol-5-yl)-5-methyl-4-[(3S)-3-(methylamino)pyrrolidine-1-carbonyl]imidazol-2-yl]-2-fluorobenzonitrile]	< 0.1 µM	< 0.1 µM
Cc1c2cc(-n3c(-c4ccc(C#N)c(F)c4)nc(C(=O)N[C@@H]4CCCNC4)c3C)ccc2nn1C [Example 104, 2-(4-Cyano-3-fluorophenyl)-1-(2,3-dimethylindazol-5-yl)-5-methyl-N-[(3R)-piperidin-3-yl]imidazole-4-carboxamide]	< 0.1 µM	< 0.1 µM
